Assay results published in patent publication US20250230193A1, “CYCLIC COMPOUND HAVING SELECTIVE KRAS INHIBITORY EFFECT ON HRAS AND NRAS” (CHUGAI SEIYAKU KABUSHIKI KAISHA, priority 2022, published 2025).

Columns and labels:
[1] = target: GDP-bound NRAS wild-type protein (Homo sapiens, UniProt P01111); test: Binding to NRAS by surface plasmon resonance (SPR), Single Cycle Kinetics; details: SPR; for NRAS/KRAS (ratio of KD value with respect to NRAS to KD value with respect to KRAS): GDP-bound NRAS wild-type vs GDP-bound KRAS wild-type
[2] = target: GDP-bound HRAS wild-type protein (Homo sapiens, UniProt P01112); test: Binding to HRAS by surface plasmon resonance (SPR), Single Cycle Kinetics; details: SPR; for HRAS/KRAS (ratio of KD value with respect to HRAS to KD value with respect to KRAS): GDP-bound HRAS wild-type vs GDP-bound KRAS wild-type
Sequence of GDP-bound HRAS wild-type protein (P01112 whole entry): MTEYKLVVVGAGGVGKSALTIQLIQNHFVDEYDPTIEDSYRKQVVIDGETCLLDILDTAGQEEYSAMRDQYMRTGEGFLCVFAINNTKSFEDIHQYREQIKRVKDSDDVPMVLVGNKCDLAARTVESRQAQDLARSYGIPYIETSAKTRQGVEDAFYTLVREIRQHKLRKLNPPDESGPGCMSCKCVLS

Sequence of GDP-bound NRAS wild-type protein (P01111 whole entry): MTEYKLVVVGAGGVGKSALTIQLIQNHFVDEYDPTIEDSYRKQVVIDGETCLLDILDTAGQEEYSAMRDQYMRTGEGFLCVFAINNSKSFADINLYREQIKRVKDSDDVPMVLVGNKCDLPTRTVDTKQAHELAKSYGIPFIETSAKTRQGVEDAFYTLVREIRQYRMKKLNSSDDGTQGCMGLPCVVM

| Structure (SMILES) | NRAS/KRAS (ratio of KD value with respect to GDP-bound NRAS wild-type protein to KD value with respect to KRAS) [1] | HRAS/KRAS (ratio of KD value with respect to GDP-bound HRAS wild-type protein to KD value with respect to KRAS) [2] | NRAS/KRAS (ratio of KD value with respect to NRAS to KD value with respect to KRAS) [1] | HRAS/KRAS (ratio of KD value with respect to HRAS to KD value with respect to KRAS) [2] |
| --- | --- | --- | --- | --- |
| CCO[C@@H]1C[C@H]2C(=O)NC3(CCC3)C(=O)N(C)[C@@H](C3CCCC3)C(=O)N(C)[C@H](C(=O)N3CCOCC3)CC(=O)N(C)[C@@H](CC(C)C)C(=O)N[C@@H]([C@H](C)CC)C(=O)N(C)CC(=O)N(C)[C@H]3CCCCN(C3=O)[C@@H](Cc3ccc(C(F)(F)F)cc3)C(=O)N(C)CC(=O)N[C@@H](CCc3cc(F)c(C(F)(F)F)c(F)c3)C(=O)N2C1 [PP0806] | B (a compound having 3 or more and less than 10 is denoted as B) | B (a compound having 3 or more and less than 10 is denoted as B) | – | – |
| CCO[C@@H]1C[C@H]2C(=O)NC3(CCC3)C(=O)N(C)[C@@H](C3CCCC3)C(=O)N(C)[C@H](C(=O)N3CCOCC3)CC(=O)N(C)[C@@H](CC(C)C)C(=O)N[C@@H](C3CC(F)(F)C3)C(=O)N(C)CC(=O)N(C)[C@H]3CCCCN(C3=O)[C@@H](Cc3ccc(C(F)(F)F)cc3)C(=O)N(C)CC(=O)N[C@@H](CCc3cc(F)c(C(F)(F)F)c(F)c3)C(=O)N2C1 [PP0807] | B (a compound having 3 or more and less than 10 is denoted as B) | B (a compound having 3 or more and less than 10 is denoted as B) | – | – |
| CC[C@H](C)[C@@H]1NC(=O)[C@H](CC(C)C)N(C)C(=O)C[C@@H](C(=O)N2CCOCC2)N(C)C(=O)[C@H](C2CCCC2)N(C)C(=O)C2(CCC2)NC(=O)[C@]2(C)CCCN2C(=O)[C@H](CCc2cc(F)c(C(F)(F)F)c(F)c2)NC(=O)CN(C)C(=O)[C@H](Cc2ccc(C(F)(F)F)cc2)N2CCCC[C@@H](C2=O)N(C)C(=O)CN(C)C1=O [PP0808] | B (a compound having 3 or more and less than 10 is denoted as B) | B (a compound having 3 or more and less than 10 is denoted as B) | – | – |
| CC[C@H](C)[C@@H]1NC(=O)[C@H](CC(C)C)N(C)C(=O)C[C@@H](C(=O)N2CCOCC2)N(C)C(=O)[C@H](C2CCCC2)N(C)C(=O)C2(CCC2)NC(=O)[C@@H]2C[C@@H](C(F)(F)F)CN2C(=O)[C@H](CCc2cc(F)c(C(F)(F)F)c(F)c2)NC(=O)CN(C)C(=O)[C@H](Cc2ccc(C(F)(F)F)cc2)N2CCCC[C@@H](C2=O)N(C)C(=O)CN(C)C1=O [PP0809] | B (a compound having 3 or more and less than 10 is denoted as B) | B (a compound having 3 or more and less than 10 is denoted as B) | – | – |
| CC[C@H](C)[C@@H]1NC(=O)[C@H](CC(C)C)N(C)C(=O)C[C@@H](C(=O)N2CCOCC2)N(C)C(=O)[C@H](C2CCCC2)N(C)C(=O)C2(CCC2)NC(=O)[C@@H]2[C@H]3C[C@H]3CN2C(=O)[C@H](CCc2cc(F)c(C(F)(F)F)c(F)c2)NC(=O)CN(C)C(=O)[C@H](Cc2ccc(C(F)(F)F)cc2)N2CCCC[C@@H](C2=O)N(C)C(=O)CN(C)C1=O [PP0810] | – | – | B (a compound having 3 or more and less than 10 is denoted as B) | B (a compound having 3 or more and less than 10 is denoted as B) |
| CCO[C@@H]1C[C@H]2C(=O)NC3(CCC3)C(=O)N(C)[C@@H](C(CC)CC)C(=O)N(C)[C@H](C(=O)N3CCOCC3)CC(=O)N(C)[C@@H](CC(C)C)C(=O)N[C@@H]([C@@H](C)CC)C(=O)N(C)CC(=O)N(C)[C@H]3CCCCN(C3=O)[C@@H](Cc3ccc(C(F)(F)F)cc3)C(=O)N(C)CC(=O)N[C@@H](CCc3cc(F)c(C(F)(F)F)c(F)c3)C(=O)N2C1 [PP0811] | – | – | B (a compound having 3 or more and less than 10 is denoted as B) | B (a compound having 3 or more and less than 10 is denoted as B) |
| CCOC1CC2C(=O)NC3(CCC3)C(=O)N(C)C(C(C)CC)C(=O)N(C)[C@H](C(=O)N3CCOCC3)CC(=O)N(C)[C@@H](CC(C)C)C(=O)N[C@@H]([C@@H](C)CC)C(=O)N(C)CC(=O)N(C)[C@H]3CCCCN(C3=O)[C@@H](Cc3ccc(C(F)(F)F)cc3)C(=O)N(C)CC(=O)N[C@@H](CCc3cc(F)c(C(F)(F)F)c(F)c3)C(=O)N2C1 (stereo partly shown) [PP0812] | – | – | B (a compound having 3 or more and less than 10 is denoted as B) | B (a compound having 3 or more and less than 10 is denoted as B) |
| CCO[C@@H]1C[C@H]2C(=O)NC3(CCC3)C(=O)N(C)[C@@H](CC(F)F)C(=O)N(C)[C@H](C(=O)N3CCOCC3)CC(=O)N(C)[C@@H](CC(C)C)C(=O)N[C@@H]([C@@H](C)CC)C(=O)N(C)CC(=O)N(C)[C@H]3CCCCN(C3=O)[C@@H](Cc3ccc(C(F)(F)F)cc3)C(=O)N(C)CC(=O)N[C@@H](CCc3cc(F)c(C(F)(F)F)c(F)c3)C(=O)N2C1 [PP0813] | – | – | C (A compound having a KD ratio of 0.1 or more and less than 3 is denoted as C) | B (a compound having 3 or more and less than 10 is denoted as B) |
